Test results taken from US4356183A, “Antihypertensive 4-thiazolidinecarboxylic acids (pyridyl derivatives)” (Santen Pharmaceutical Co., Ltd., priority 1978, dated 1982).
Where two headings read alike, the source gives them in different places.

Legend:
[1] = target: T1, angiotensin I-converting enzyme (Oryctolagus cuniculus, UniProt P12822); experiment: Inhibition of angiotensin I-converting enzyme by spectrophotometry (HHL substrate); format: biochemical; conditions: enzyme from rabbit lung; 5 mM HHL; pH 8.3; 37° C., 30 min
T1 construct: angiotensin I-converting enzyme extracted from rabbit lung; from tissue; host or cells: rabbit lung
T1 sequence (P12822 34-1310): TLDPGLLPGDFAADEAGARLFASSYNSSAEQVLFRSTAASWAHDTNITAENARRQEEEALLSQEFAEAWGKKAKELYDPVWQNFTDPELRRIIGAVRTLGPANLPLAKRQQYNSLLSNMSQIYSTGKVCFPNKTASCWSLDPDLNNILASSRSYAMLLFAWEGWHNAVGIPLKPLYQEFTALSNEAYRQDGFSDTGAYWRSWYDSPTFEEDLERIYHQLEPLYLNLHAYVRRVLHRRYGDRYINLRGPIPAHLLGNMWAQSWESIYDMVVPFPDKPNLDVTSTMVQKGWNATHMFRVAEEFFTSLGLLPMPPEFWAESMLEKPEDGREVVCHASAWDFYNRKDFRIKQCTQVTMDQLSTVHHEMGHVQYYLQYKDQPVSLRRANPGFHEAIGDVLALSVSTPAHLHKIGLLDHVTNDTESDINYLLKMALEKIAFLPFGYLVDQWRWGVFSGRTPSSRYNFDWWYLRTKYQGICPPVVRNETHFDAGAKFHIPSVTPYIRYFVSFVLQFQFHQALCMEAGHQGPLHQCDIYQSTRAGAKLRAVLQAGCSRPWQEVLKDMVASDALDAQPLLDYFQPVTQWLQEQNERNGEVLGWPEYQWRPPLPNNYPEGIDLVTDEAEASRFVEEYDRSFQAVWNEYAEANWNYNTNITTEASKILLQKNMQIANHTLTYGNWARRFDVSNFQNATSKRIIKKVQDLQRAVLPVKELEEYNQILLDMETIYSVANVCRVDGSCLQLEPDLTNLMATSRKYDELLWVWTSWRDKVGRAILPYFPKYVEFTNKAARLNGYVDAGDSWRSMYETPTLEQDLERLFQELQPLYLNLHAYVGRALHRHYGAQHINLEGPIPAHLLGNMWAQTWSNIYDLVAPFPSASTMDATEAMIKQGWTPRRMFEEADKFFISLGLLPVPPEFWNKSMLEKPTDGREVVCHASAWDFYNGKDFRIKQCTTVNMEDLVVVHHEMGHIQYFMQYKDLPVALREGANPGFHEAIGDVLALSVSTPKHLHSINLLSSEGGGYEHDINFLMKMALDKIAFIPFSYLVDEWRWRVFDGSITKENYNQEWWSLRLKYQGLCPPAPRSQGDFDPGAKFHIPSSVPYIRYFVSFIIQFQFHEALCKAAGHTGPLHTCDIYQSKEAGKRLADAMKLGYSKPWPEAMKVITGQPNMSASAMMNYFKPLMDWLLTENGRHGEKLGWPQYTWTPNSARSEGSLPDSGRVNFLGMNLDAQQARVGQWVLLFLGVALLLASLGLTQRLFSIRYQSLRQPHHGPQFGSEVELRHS
Experimental: That is, the absorbance of hippuric acid was measured, which is liberated by incubating hippuryl-L-histidyl-L-leucine (HHL) as substrate in the presence of angiotensin I-converting enzyme extracted from rabbit lung.
(§1) Measurement of inhibitory activity of angiotensin I-converting enzyme
The reaction mixture is as follows:
100 mM phosphate buffer (pH 8.3)
10^-3 ~10^-9 M enzyme inhibitor
0.25 ml of the above mixture was incubated at 37° C. for 30 minutes and the reaction was stopped by adding 0.25 ml of 1 N hydrochloric acid. To this solution, 1.5 ml of ethyl acetate was added in order to extract hippuric acid. 1.0 ml of ethyl acetate layer was collected and evaporated to dryness, and the residue obtained was dissolved in 1.0 ml of water.
The inhibitory activity of angiotensin I-converting enzyme was calculated by the following formula: [formula]

[2] = tested on: contractile response of isolated guinea pig ileum to angiotensin I; experiment: Inhibition of contractile response of isolated guinea pig ileum to angiotensin I; format: cell-based; conditions: angiotensin I 0.1 μg/ml, compound added 5 min before, 30° C., read-out: Angiotensin I IC50 (50% inhibition of angiotensin I activity inducing the contraction of guinea pig ileum)
From the text: As the method of measurement of angiotensin I-converting enzyme activity, bioassay for the contractile response of isolated smooth muscle or the pressor response of normal animals and biochemical assay for the enzyme isolated from lung or other organs of animals are known. The former is found more advantageous than the latter for the examination of the convertion of angiotensin I to angiotensin II in vivo.
In the present study, therefore, we adopted the bioassay for contractile response of isolated guinea pig ileum to angiotensin I.
as §1
(§2) Isolated guinea pig ileum was suspended in the organ bath containing 20 ml of Tyrode's solution of 30° C. gassed with 95% O2 +5% CO2. The contraction induced by the addition of angiotensin I (0.1 μg/ml) at intervals of 10 minutes was recorded on a recticorder (Nihon Koden) for 90 seconds using FD pick up (ST-1T-H, Nihon Koden).
(§3) The test compounds were added to the bath 5 minutes before the addition of angiotensin I.
The inhibitory activity of angiotensin I-converting enzyme was calculated by the following formula. [formula] A: contractile intensity of angiotensin I before addition of the compound B: contractile intensity of angiotensin I after addition of the compound

[3] = tested on: contractile response to bradykinin (isolated guinea pig ileum); experiment: Augmentation of contractile response of isolated guinea pig ileum to bradykinin; format: cell-based; conditions: bradykinin 0.005 μg/ml, compound added 5 min before, 30° C., read-out: Bradykinin AC50 (50% augmentation of bradykinin activity inducing the contraction of guinea pig ileum)
Experimental: as §2, §3
From the fact that kininase II, which destroys bradykinin having contractive action on isolated guinea pig ileum, is thought to be identical with angiotensin I-converting enzyme, augmentation of the contractile response to bradykinin by test compounds was examined by using bradykinin (0.005 μg/ml) in place of angiotensin I according to the above mentioned method.

[4] = tested on: pressor response to angiotensin I; experiment: Inhibition of pressor response to angiotensin I in rats after oral administration; format: in vivo, rat (male Wistar); conditions: angiotensin I 300 ng/kg i.v.
Experimental: Male Wistar strain rats weighing about 200-300 g were used.
Under ether anesthesia, polyethylene cannulae are inserted into carotid arthery and jugular vein. The cannula to carotid artery is connected to an electric transducer, while the cannula to jugular vein is connected to an apparatus for continuous infusion. After the complete recovery from anesthesia, angiotensin I is infused intravenously in a dose of 300 ng/kg by the apparatus for continuous infusion, and the pressor response is recorded by polygraph (Nihon Koden, RM-150).
The compounds of this invention suspended in 0.5% tragacanth solution are administered orally in a dose of 0.3 ml per 100 g of body weight, and the pressor response to angiotensin I infused intravenously is measured with time.
The inhibitory activity of the compounds against angiotensin I-converting enzyme is expressed as the percent inhibition of pressor response to angiotensin I.

IC50 [1] | IC50 ([2]; Cavia porcellus) | Structure (SMILES) | AC50 ([3]; Cavia porcellus) | also measured
1200 nM | 460 nM | O=C(O)[C@@H]1CSC(c2ccc(O)cc2)N1C(=O)CCS (stereo partly shown) [Compound 56] | 5.5 nM | –
730 nM | 460 nM | Cc1ccc(C2SC[C@@H](C(=O)O)N2C(=O)[C@H](C)CS)o1 (stereo partly shown) [Compound 87] | 2.6 nM | –
2800 nM | 810 nM | C[C@H](CS)C(=O)N1C(Cc2ccccc2)SC[C@H]1C(=O)O (single isomer, unassigned) [Compound 10a] | 13 nM | –
390 nM | 410 nM | COc1cc(C2SC[C@@H](C(=O)O)N2C(=O)[C@H](C)CS)cc(OC)c1OC (stereo partly shown) [Compound 71] | 9.4 nM | –
450 nM | 240 nM | O=C(O)[C@@H]1CSC(c2ccccc2)N1C(=O)CCS (stereo partly shown) [Compound 16] | 2.6 nM | –
2200 nM | 560 nM | O=C(O)[C@@H]1CSC(c2ccccc2O)N1C(=O)CS (stereo partly shown) [Compound 44] | 5 nM | –
3600 nM | 700 nM | O=C(O)[C@@H]1CSC(c2ccccc2Cl)N1C(=O)CCS (stereo partly shown) [Compound 24] | 16 nM | –
650 nM | 410 nM | O=C(O)[C@@H]1CSC(CCS)N1C(=O)CCS (single isomer, unassigned) [Compound 6a] | – | AC50 [3]: 15 nM
540 nM | 170 nM | Cc1ccc(C2SC[C@@H](C(=O)O)N2C(=O)[C@H](C)CS)cc1 (stereo partly shown) [Compound 22] | 3.9 nM | –
75 nM | 92 nM | C[C@H](CS)C(=O)N1C(c2cc(Cl)ccc2O)SC[C@H]1C(=O)O (stereo partly shown) [Compound 60] | 2 nM | –
420 nM | 500 nM | COc1ccccc1C1SC[C@@H](C(=O)O)N1C(=O)[C@H](C)CS (stereo partly shown) [Compound 64] | 8 nM | –
240 nM | 140 nM | C[C@H](CS)C(=O)N1C(c2ccc3c(c2)OCO3)SC[C@H]1C(=O)O (stereo partly shown) [Compound 81] | 0.94 nM | –
250 nM | 85 nM | C[C@H](CS)C(=O)N1C(CCS)SC[C@H]1C(=O)O (single isomer, unassigned) [Compound 8a] | 1.4 nM | –
260 nM | 170 nM | C[C@H](CS)C(=O)N1CSC[C@H]1C(=O)O [Compound 96, reference compound] | 2.6 nM | –
310 nM | – | C[C@H](CS)C(=O)N1C(Cc2ccccc2)SC[C@H]1C(=O)O (single isomer, unassigned) [Compound 10b] | – | IC50 [2]: 580 nM; AC50 [3]: 10 nM
400 nM | 180 nM | C[C@H](CS)C(=O)N1C(c2cccc([N+](=O)[O-])c2)SC[C@H]1C(=O)O (stereo partly shown) [Compound 34] | 2.5 nM | –
290 nM | – | C[C@H](CS)C(=O)N1C(CCS)SC[C@H]1C(=O)O (single isomer, unassigned) [Compound 8b] | – | IC50 [2]: 140 nM; AC50 [3]: 1.1 nM
370 nM | – | O=C(O)[C@@H]1CSC(CCS)N1C(=O)CCS (single isomer, unassigned) [Compound 6b] | – | IC50 [2]: 300 nM; AC50 [3]: 3.7 nM
120 nM | 50 nM | C[C@H](CS)C(=O)N1C(C2CCCCC2)SC[C@H]1C(=O)O (stereo partly shown) [Compound 4] | 2 nM | Inhibition (%) of pressor response to angiotensin I, 5 min ([4]; 5 min, dose: 3, 45, 49 1.8 mg/kg, 4, 46 1.3, 50 1.4, 76 2.0, 77 1.5): 46.7%; Inhibition (%) of pressor response to angiotensin I, 15 min ([4]; 15 min, dose: 3, 45, 49 1.8 mg/kg, 4, 46 1.3, 50 1.4, 76 2.0, 77 1.5): 46.5%; Inhibition (%) of pressor response to angiotensin I, 25 min ([4]; 25 min, dose: 3, 45, 49 1.8 mg/kg, 4, 46 1.3, 50 1.4, 76 2.0, 77 1.5): 37.2%; Inhibition (%) of pressor response to angiotensin I, 35 min ([4]; 35 min, dose: 3, 45, 49 1.8 mg/kg, 4, 46 1.3, 50 1.4, 76 2.0, 77 1.5): 32.2%; Inhibition (%) of pressor response to angiotensin I, 45 min ([4]; 45 min, dose: 3, 45, 49 1.8 mg/kg, 4, 46 1.3, 50 1.4, 76 2.0, 77 1.5): 28.8%; Inhibition (%) of pressor response to angiotensin I, 55 min ([4]; 55 min, dose: 3, 45, 49 1.8 mg/kg, 4, 46 1.3, 50 1.4, 76 2.0, 77 1.5): 27.5%; Inhibition (%) of pressor response to angiotensin I, 65 min ([4]; 65 min, dose: 3, 45, 49 1.8 mg/kg, 4, 46 1.3, 50 1.4, 76 2.0, 77 1.5): 27.5%; Inhibition (%) of pressor response to angiotensin I, 75 min ([4]; 75 min, dose: 3, 45, 49 1.8 mg/kg, 4, 46 1.3, 50 1.4, 76 2.0, 77 1.5): 13.8%; Inhibition (%) of pressor response to angiotensin I, 85 min ([4]; 85 min, dose: 3, 45, 49 1.8 mg/kg, 4, 46 1.3, 50 1.4, 76 2.0, 77 1.5): 14.5%; Inhibition (%) of pressor response to angiotensin I, 95 min ([4]; 95 min, dose: 45, 49 1.8 mg/kg, 4, 46 1.3, 50 1.4, 76 2.0, 77 1.5): 10.3%
1300 nM | 360 nM | C[C@H](CS)C(=O)N1C(c2cccc3ccccc23)SC[C@H]1C(=O)O (stereo partly shown) [Compound 83] | 13 nM | –
